In the NIST ThermoML archive (doi:10.1016/j.tca.2018.03.014):
Numbers after ± are expanded uncertainties.

Columns and labels:
[1] = Crystal; DTA
[2] = Molar enthalpy of transition or fusion; settings: Crystal 2; DSC

- Normal melting temperature [1]: 58.10 ± 4 °C
- Molar enthalpy of transition or fusion [2]: 16 ± 0.335 kcal/mol
SMILES: CCCCCCCCCCCCCCCCCCO [1-octadecanol]
